Here are results for 1 compound from patent US20220339260A1, “METHOD FOR PRODUCING INSULIN-PRODUCING CELL USING DIHYDROINDOLIZINONE DERIVATIVES” (TOKYO INSTITUTE OF TECHNOLOGY, priority 2019, published 2022).

The test system of this test is human iPS cell Toe strain. Nature of the test: Effect to promote differentiation from human iPS cells into insulin-producing cells (insulin-positive cell rate, Reference Example 1). The class given is cell-based. Conditions: 10 μM; average of 30 cases; untreated control 4.9%. An excerpt: The evaluation system of the effect (efficacy) to promote differentiation from human iPS cells into insulin-producing cells was constructed with reference to known information (Non Patent Document 6). Further, the medium used in each differentiation stage was also produced with reference to known information (differentiation media A to E (Media A to E) described in Non Patent Document 6 were used respectively for stages 1 to 5; however, a medium free from GLP-1 receptor agonist and nicotinamide was used as differentiation medium E).
In order to evaluate the efficacy of each compound, the compound of Synthesis Example 1 was used as a positive control, and dimethylsulfoxide (DMSO) (SIGMA, D2650) with a final concentration of 0.1% was used as a control untreated with compounds. Each compound was dissolved in DMSO, and two types of compound solutions were prepared so as to have final concentrations of 2 μM and 10 μM after the compound was added to the medium. In the following evaluation, the compound solutions were added to the medium to 0.1% that is the final concentration of DMSO.
First, induction from human iPS cell Toe strain (National Institutes of Biomedical Innovation, Health and Nutrition) into cells on day 7 of culture (2 days after replacement with differentiation medium C (cells in the differentiation process from FOXA2-positive primitive gut tube cells into PDX1-positive pancreatic progenitor cells)) was performed according to the method of Non Patent Document 6 for “inducing differentiation from human iPS cells into pancreatic β cells”, and the cells were collected and thereafter stored in liquid nitrogen using Bambanker (NIPPON Genetics Co, Ltd.) at 1×10^7 cells/mL/tube, to produce a cell stock for evaluation. The cell stock was dissolved at the start of the evaluation of efficacy, suspended in differentiation medium C for stage 3 (DMEM high glucose (Life technologies, 11965092), 0.25 μM SANT-1, 0.1 μM LDN193189 (Stemgent, 04-0074), 10 μM SB431542, 2 μM Retinoic acid (Stemgent, 04-0021), 1% B27 serum free supplement (Life technologies, 17504044) and thereafter seeded in a 96-well plate (Corning, #3340) coated with Synthemax II (Corning, #5656) at 1×10^5 cells/well. After culturing for 2 days, the medium was removed, and new differentiation medium C for stage 3 with the compound or only DMSO added was added thereto at 100 μL/well. After culturing for 2 days, the medium was removed, and new differentiation medium D for stage 4 (DMEM high glucose, 0.1 μM LDN193189, 5 μM TGF-β type I receptor kinase inhibitor II (Calbiochem 616452), 0.3 μM (−)-indolactam V (Enzo life science ALX-420-011-C300), 1% B27 serum free supplement) with the compound or only DMSO added was added thereto at 100 μL/well. After culturing for 2 to 3 days, the medium was removed, and new differentiation medium E for stage 5 (GLP-1 receptor agonist and nicotinamide-free; Knockout […] (Life technologies, 12660012), 1% B27 serum free supplement) with the compound or only DMSO added was added thereto at 200 μL/well. After culturing for 2 days, the medium was removed, and a 4% paraformaldehyde phosphorus acid buffer (Wako, 163-20145) was added thereto at 150 μL/well and left standing for 30 to 60 minutes at room temperature to fix the cells. A phosphorus acid buffer (PBS) (Takara, T9181) containing 1% Triton X-100 (Sigma, T8787) was left standing for 15 minutes at room temperature, then washed with PBS-T (Takara, T9183), and was blocked for 1 hour using 20% Blocking One (Nacalai tesque, Tokyo, Japan) diluted with PBS-T at room temperature. After the removal of Blocking One, guinea pig anti-insulin antibody (Abcam, ab7842) diluted 200-fold with 20% Blocking One was added thereto at 50 μL/well, followed by standing at 4° C. overnight. […]

On to `O=C1CCC(C(=O)Nc2ncc(-c3ccccc3)s2)n2cccc21` (stereo not shown) [Synthesis Example 1, 8-Oxo-N-(5-phenylthiazol-2-yl)-6,7-dihydro-5H-indolizine-5-carboxamide], for which the “average insulin-positive cell rate” value came to 13%.
